Assay results reported in patent US9434925B2, “Genetically modified mesenchymal stem cell that express an exogenous cytotoxic protein” (APCETH GMBH & CO. KG, priority 2009, dated 2016).

System: human MSCs carrying pLenti6 TK RANTES (HSV tk under RANTES promoter)
Assay: Specific cell death of induced genetically modified MSCs after ganciclovir treatment
Assay type: cell-based
Conditions: 9 days TNFα (10 ng/ml) and IFNγ (10 ng/ml), then 3 days 100 μM ganciclovir
Procedure: Human MSCs were incubated over night with replication deficient lentiviruses carrying the vector pLenti6 TK RANTES harboring the HSV tk gene under the control of the RANTES promoter and the blasticidin resistance gene under the control of the SV40 promoter (multiplicity of infection (MOI): 10) (see FIG. 8).
After overnight incubation the virus containing media was removed and replaced with fresh media. The next day blasticidin (6 μg/ml) was added to the cells to select for genetically modified MSCs. Culture media, including blasticidin was changed every 3 to 4 days for a minimum of 6 days.
Genetically modified cells (50000 cells in per 6 well) that were generated as described above were treated for 9 days with TNFα (10 ng/ml) and IFNγ (10 ng/ml) with addition of fresh cytokines every 3 days. Subsequently the cells were incubated for 3 days with 100 μM ganciclovir.

## Nc1nc(O)c2ncn(COC(CO)CO)c2n1 [ganciclovir]
  survival of genetically modified MSCs: not surviving
